Assay results reported in US11071697B2, “Metal-carbon structure hybrid formulation for dental use in the treatment of dental hypersensitivity, demineralization and cavities” (UNIVERSIDAD DE CHILE, priority 2016, dated 2021).

Columns and labels:
[1] = Solubility of the salt as ammonia metal complex; format: physicochemical; settings: impossible in aqueous solution
Text: In FIG. 6 it is observed the absorption spectrum UV/Visible which confirms this structure.
The shift toward smaller wavelengths gives an account of the formation of ammonia metal complex which is observed in an increase of the solubility of the salt in this solution which allows to reach fluoride concentrations close to 30,000 ppm, which is impossible in aqueous solution.

[2] = tested on: (TPH1) human cells; assay: Cell viability by mitochondrial activity assay (MTT); format: cell-based; settings: FIG. 2
Text: FIG. 2. Cell viability assay using mitochondrial activity technique (MTT). THP1 cell type.

[3] = tested on: main bacterial species associated with dental caries; assay: In vitro antibacterial capacity, inhibition halos; format: cell-based; settings: composition: 25,000 ppm aqueous (Cu(NH3)6)F2 ammonia with 0.002 g/ml graphite oxide; FIG. 1
Text: FIG. 1. […] The dark zone corresponds to the area where there is no bacterial growth. […] A) Chlorhexidine, B) Silver Diamine Fluorine, C) Silane Fluorine, D) Composition of the Invention. […] These tests have been performed on the main bacterial species associated with dental caries.

SMILES	fluoride concentrations reached in ammonia solution [1]	toxicity (in words) [2]	areas of inhibition halos [3] [mm^2]
N.N.N.N.N.N.[Cu+2].[F-].[F-] [Cu(NH3)6F2]	~30,000 ppm	–	–
[H]/N=C(\N/C(=N/[H])NCCCCCCNC(=N)NC(=N)Nc1ccc(Cl)cc1)Nc1ccc(Cl)cc1 [chlorhexidine]	–	a degree of toxicity	659
